In the supplement of paper PMC10307832:

How the values were obtained:
Test in all cases: relative viability (nuclei count vs DMSO), 5 days (fraction); higher = more cells survive
VX-11e + Pictilisib = compound: CC1=CN=C(N=C1C2=CNC(=C2)C(=O)N[C@H](CO)C3=CC(=CC=C3)Cl)NC4=C(C=C(C=C4)F)Cl [VX-11e] + CS(=O)(=O)N1CCN(Cc2cc3nc(-c4cccc5[nH]ncc45)nc(N4CCOCC4)c3s2)CC1 [Pictilisib] (partner 1 µM)
How it was run: (§1)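 Lung cancer cell lines in 1536-well plates were dosed by pin tool the day after seeding, either with one drug alone or with a fixed anchor-drug dose plus five library-drug doses (not always all listed) in √10 steps. After 5 days, cells were fixed and their nuclei stained in one step (final 0.05% Triton X-100, 1% formaldehyde, 1 ug/ml Hoechst), then counted on 4× images. Relative viability is the nuclei count in treated wells divided by that in vehicle wells. Values are medians of duplicate plates.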

VX-11e + Crizotinib = compound: CC1=CN=C(N=C1C2=CNC(=C2)C(=O)N[C@H](CO)C3=CC(=CC=C3)Cl)NC4=C(C=C(C=C4)F)Cl [VX-11e] + C[C@@H](Oc1cc(-c2cnn(C3CCNCC3)c2)cnc1N)c1c(Cl)ccc(F)c1Cl [Crizotinib] (partner 1 µM)
How it was run: as §1

VX-11e + Dasatinib = compound: CC1=CN=C(N=C1C2=CNC(=C2)C(=O)N[C@H](CO)C3=CC(=CC=C3)Cl)NC4=C(C=C(C=C4)F)Cl [VX-11e] + Cc1nc(Nc2ncc(C(=O)Nc3c(C)cccc3Cl)s2)cc(N2CCN(CCO)CC2)n1 [Dasatinib] (partner 0.075 µM)
How it was run: as §1

VX-11e + Vorinostat = compound: CC1=CN=C(N=C1C2=CNC(=C2)C(=O)N[C@H](CO)C3=CC(=CC=C3)Cl)NC4=C(C=C(C=C4)F)Cl [VX-11e] + O=C(CCCCCCC(=O)Nc1ccccc1)NO [Vorinostat] (partner 1 µM)
How it was run: as §1

Row | Cell Line | relative viability (VX-11e + Pictilisib; first compound 0.04 µM) | relative viability (VX-11e + Pictilisib; first compound 0.1265 µM) | relative viability (VX-11e + Pictilisib; first compound 0.4 µM) | relative viability (VX-11e + Pictilisib; first compound 1.265 µM) | relative viability (VX-11e + Pictilisib; first compound 4 µM) | relative viability (VX-11e + Crizotinib; first compound 0.04 µM) | relative viability (VX-11e + Crizotinib; first compound 0.1265 µM) | relative viability (VX-11e + Crizotinib; first compound 0.4 µM) | relative viability (VX-11e + Crizotinib; first compound 1.265 µM) | relative viability (VX-11e + Crizotinib; first compound 4 µM) | relative viability (VX-11e + Dasatinib; first compound 0.04 µM) | relative viability (VX-11e + Dasatinib; first compound 0.1265 µM) | relative viability (VX-11e + Dasatinib; first compound 0.4 µM) | relative viability (VX-11e + Dasatinib; first compound 1.265 µM) | relative viability (VX-11e + Dasatinib; first compound 4 µM) | relative viability (VX-11e + Vorinostat; first compound 0.04 µM) | relative viability (VX-11e + Vorinostat; first compound 0.1265 µM) | relative viability (VX-11e + Vorinostat; first compound 0.4 µM) | relative viability (VX-11e + Vorinostat; first compound 1.265 µM) | relative viability (VX-11e + Vorinostat; first compound 4 µM)
1 | NCI-H1755 | 0.397 | 0.337 | 0.152 | 0.357 | 0.16 | 0.905 | 0.849 | 0.845 | 0.873 | 0.491 | 0.444 | 0.392 | 0.413 | 0.398 | 0.298 | 0.795 | 0.686 | 0.782 | 0.764 | 0.598
2 | NCI-H1915 | 0.556 | 0.757 | 0.636 | 0.627 | 0.282 | 0.945 | 0.82 | 0.919 | 0.788 | 0.548 | 0.288 | 0.291 | 0.25 | 0.267 | 0.217 | 0.469 | 0.493 | 0.526 | 0.607 | 0.43
3 | NCI-H1944 | 0.301 | 0.308 | 0.306 | 0.309 | 0.281 | 1.17 | 1.02 | 0.942 | 0.905 | 0.583 | 0.203 | 0.207 |  | 0.2 | 0.154 | 0.492 | 0.506 | 0.441 | 0.478 | 0.408
4 | NCI-H1975 | 0.237 | 0.278 | 0.2 | 0.222 | 0.202 | 0.972 | 0.962 | 0.95 | 0.963 | 0.407 | 0.373 | 0.29 | 0.195 | 0.254 | 0.171 | 0.736 | 0.724 | 0.664 | 0.677 | 0.465
5 | NCI-H1993 |  | 0.805 |  | 0.814 | 0.865 |  | 0.804 |  | 0.752 | 0.647 | 0.442 | 0.54 | 0.523 | 1.46 | 0.504 |  | 0.819 | 0.505 | 0.47 | 0.623
6 | NCI-H2009 | 0.712 | 0.671 | 0.478 | 0.23 | 0.186 | 1.07 | 1.04 | 0.933 | 0.565 | 0.364 | 0.307 | 0.286 | 0.242 | 0.169 | 0.122 | 0.794 | 0.604 | 0.638 | 0.791 | 0.233
7 | NCI-H2023 | 0.2 | 0.215 | 0.0991 | 0.151 | 0.119 | 0.633 | 0.606 | 0.519 | 0.427 | 0.338 | 0.647 | 0.508 | 0.502 | 0.439 | 0.234 | 0.709 | 0.604 | 0.289 | 0.318 | 0.209
8 | NCI-H2085 | 0.361 | 0.51 | 0.441 | 0.452 | 0.357 | 0.88 | 0.817 | 0.746 | 0.714 | 0.619 | 0.296 | 0.241 | 0.217 | 0.188 | 0.193 | 0.826 | 0.707 | 0.689 | 0.449 | 0.584
